These results are taken from patent US20050059626A1, “Methods of preventing and treating viral infections using immunomodulatory polynucleotide sequences” (priority 2000, published 2005).

Data set [1] concerns HSV-2 strain MS. Description: Recurrent genital HSV-2 disease in guinea pigs. It counts as in vivo, Swiss Hartley guinea pigs. To be noted: 3 times/day for 7 days starting 6 hours post inoculation (21 treatments).
Data set [2] relates to HSV-2. As to the kind of experiment: Viral titer from Vero cells pre-treated with oligonucleotide, HSV-2. Format: cell-based, African Green monkey (Vero cells). The settings on record: cells infected with HSV-2. Here is the method:
(§1) Vero cells, a cell line derived from African Green monkey kidney, were pre-treated with varying concentrations of ISS or non-ISS oligonucleotides for varying times prior to the addition of HSV-1 or HSV-2. Oligonucleotides were used at 1 μg/ml or 10 μg/ml and the cells were incubated with the oligonucleotides for 30 seconds, 10 minutes or 24 hours. Viral titers were calculated as a percent of control titer generated by cells not treated with the oligonucleotides. The data are expressed as percent of control titer.

Data set [3] relates to HSV-1. Description: Viral titer after pre-treating HSV-1 virus with oligonucleotide, Vero cells. Format: cell-based, African Green monkey (Vero cells). The protocol:
(§2) HSV-1 or HSV-2 virus was pre-treated with varying concentrations of ISS or non-ISS oligonucleotides for 10 minutes prior to adding the mixture to plated Vero cells. Oligonucleotides were used at 1 μg/ml or 10 μg/ml. Viral titers were calculated as a percent of control titer generated by cells not treated with the oligonucleotides. The data are expressed as percent of control titer.

Data set [4] deals with HSV-1. Description: Viral titer from Vero cells pre-treated with oligonucleotide, HSV-1. It counts as cell-based, African Green monkey (Vero cells). To be noted: cells infected with HSV-1. Here is the method: as §1
For data set [5], the system named is HSV-2. As to the kind of experiment: Viral titer after pre-treating HSV-2 virus with oligonucleotide, Vero cells. It counts as cell-based, African Green monkey (Vero cells). Here is the method:
as §2

The subject of data set [6] is HBV. Description: Chronic HBV model: serum HBV DNA and HBsAg in STC transgenic mice. To be noted: STC mice; ISS 100 μg SC; murine IL-12 100 ng IP days 12, 13, 14. It counts as in vivo, STC strain transgenic mice. Here is the method: ISS activity was tested in an animal model of chronic hepatitis. An ISS-containing phosphorothioate oligonucleotide (5′-[…]-3′) (SEQ ID NO:1), was delivered to STC strain transgenic mice, followed by measurement of HBV DNA and HBsAg production.
STC line mice were developed at Stanford University by Patricia Marion. The majority of these mice secrete HBV of the Ayw genotype (Galibert et al. (1979) Nature 281:646) to titers of 10^6-8 viral genome equivalents per ml of serum. STC mice were derived from the FVB strain, and were constructed by microinjection of HBV genomic DNA.
Approximately one month old mice were bled and tested for serum levels of HBsAg, which is predictive of viral DNA titer. A pool of 40 STC mice with approximately equal levels of HBsAg were selected and randomly assigned to four treatment groups of 10 animals each. The groups were treated as follows: • 1. 100 μg of ISS injected subcutaneously, once per week for 3 weeks (days 0, 7, 14) • 2. 100 μg of ISS injected subcutaneously, one injection at day 14 • 3. 100 ng of murine 1L-12 injected intraperitoneally on days 12, 13, and 14. • 4. PBS injected subcutaneously (days 0, 7, 14)
Blood samples were taken at day 0, 7, 14, 15 (22 hr after last IL-12 injection), 18, 28 and 35. Serum prepared from the blood samples was tested for HBV DNA by quantitative PCR (testing performed under contract by Hepadnavirus Testing, Inc.), and HBsAg using a commercially available EIA kit for HBsAg from Abbott Laboratories. Animals were sacrificed at day 35 and livers were collected for histologic analysis.

The mark [7] stands for this setting: cells pre-treated 1 μg/ml, 30 sec.
Where [8] appears, read: cells pre-treated 10 μg/ml, 30 sec.
The mark [9] stands for this setting: cells pre-treated 10 μg/ml, 10 min.
The mark [10] stands for this setting: cells pre-treated 10 μg/ml, 24 hr.
[11] abbreviates: HSV-1 virus pre-treated 10 minutes with 1 μg/ml.
[12] abbreviates: HSV-1 virus pre-treated 10 minutes with 10 μg/ml.
[13] abbreviates: cells pre-treated 1 μg/ml, 10 min.
[14] abbreviates: cells pre-treated 1 μg/ml, 24 hr.
[15] abbreviates: HSV-2 virus pre-treated 10 minutes with 1 μg/ml.
[16] abbreviates: HSV-2 virus pre-treated 10 minutes with 10 μg/ml.

In the case of `Nc1nc2c(ncn2COCCO)c(=O)[nH]1` [Acyclovir, reference compound], the “Cumulative recurrent mean lesion days” value in data set [1] is reported as “significant reduction in cumulative recurrent mean lesion days”.

As to “5′-TGACTGTGAACCTTAGAGATGA-3′ (chemistry not given here) [SEQ ID NO: 12, non-ISS control oligonucleotide, reference compound]”, the “Viral titer, percent of control titer” value in data set [2] (setting [7]) is reported as 111% of control titer; in data set [2] (setting [8]), 129% of control titer; in data set [2] (setting [9]), 100% of control titer; in data set [2] (setting [10]), 98% of control titer; in data set [3] (setting [11]), 98% of control titer; in data set [3] (setting [12]), 101% of control titer. The “Viral titer, percent of control titer” value in data set [4] (setting [7]) was 132% of control titer; in data set [4] (setting [13]), 98% of control titer; in data set [4] (setting [14]) it was 97% of control titer; in data set [4] (setting [8]) it was 141% of control titer; in data set [4] (setting [9]) it was 100% of control titer; in data set [4] (setting [10]), 94% of control titer. Further, the results for the “Viral titer, percent of control titer” value in data set [5] (setting [15]) and in data set [5] (setting [16]) were 100% of control titer and 97% of control titer, respectively.

Take “5′-TGACTGTGAAGGTTAGAGATGA-3′ (chemistry not given here) [SEQ ID NO: 9, reference compound]”: the “Viral titer, percent of control titer” value is reported as 98% of control titer in data set [2] (setting [7]); 96% of control titer in data set [2] (setting [13]); 103% of control titer in data set [2] (setting [14]); 103% of control titer in data set [2] (setting [8]); 97% of control titer in data set [2] (setting [9]); 99% of control titer in data set [2] (setting [10]). The “Viral titer, percent of control titer” value is recorded as 102% of control titer in data set [3] (setting [11]); 103% of control titer in data set [3] (setting [12]); 100% of control titer in data set [4] (setting [7]); 99% of control titer in data set [4] (setting [13]); 101% of control titer in data set [4] (setting [14]); 96% of control titer in data set [4] (setting [8]). Moreover, the “Viral titer, percent of control titer” value in data set [4] (setting [9]) is recorded as 100% of control titer; in data set [4] (setting [10]) it was 97% of control titer; in data set [5] (setting [15]), 98% of control titer; in data set [5] (setting [16]) it was 106% of control titer.

For the molecule “5′-TCGTCGAACGTTCGTTAACGTTCG-3′ (listed as DNA, chemistry not given here) [SEQ ID NO: 11, ISS oligonucleotide]”, the “Viral titer, percent of control titer” value is 119% of control titer in data set [2] (setting [7]); 136% of control titer in data set [2] (setting [8]); 100% of control titer in data set [3] (setting [11]); 100% of control titer in data set [3] (setting [12]); 129% of control titer in data set [4] (setting [7]); 95% of control titer in data set [4] (setting [13]). The “Viral titer, percent of control titer” value in data set [4] (setting [14]) is 87% of control titer; in data set [4] (setting [8]), 122% of control titer; in data set [4] (setting [9]), 96% of control titer; in data set [4] (setting [10]) it was 78% of control titer; in data set [5] (setting [15]), 101% of control titer; in data set [5] (setting [16]), 97% of control titer.

B1: murine IL-12: murine IL-12, 100 ng injected intraperitoneally as comparator in STC mice (protein, UniProt P43431 23-215; P43432 23-335, looked up)
Interleukin-12 subunit alpha: RVIPVSGPARCLSQSRNLLKTTDDMVKTAREKLKHYSCTAEDIDHEDITRDQTSTLKTCLPLELHKNESCLATRETSSTTRGSCLPPQKTSLMMTLCLGSIYEDLKMYQTEFQAINAALQNHNHQQIILDKGMLVAIDELMQSLNHNGETLRQKPPVGEADPYRVKMKLCILLHAFSTRVVTINRVMGYLSSA
Interleukin-12 subunit beta: MWELEKDVYVVEVDWTPDAPGETVNLTCDTPEEDDITWTSDQRHGVIGSGKTLTITVKEFLDAGQYTCHKGGETLSHSHLLLHKKENGIWSTEILKNFKNKTFLKCEAPNYSGRFTCSWLVQRNMDLKFNIKSSSSSPDSRAVTCGMASLSAEKVTLDQRDYEKYSVSCQEDVTCPTAEETLPIELALEARQQNKYENYSTSFFIRDIIKPDPPKNLQMKPLKNSQVEVSWEYPDSWSTPHSYFSLKFFVRIQRKKEKMKETEEGCNQKGAFLVEKTSTEVQCKGGNVCVQAQDRYYNSSCSKWACVPCRVRS
As for B1, the “Effect on serum HBV DNA viral titer” value in data set [6] is given as “effective in reducing viral titer”.
